The test system of assay [1] is leishmaniasis animal model. Also on record: method as in PMID 28967262. The conditions noted are these: cited from earlier work.
The target of assay [2] is LdMetRS (Leishmania donovani, UniProt A0A3Q8IBX2). Further details: method as in PMID 28967262. The following applies: cited from earlier work.
For assay [3], the target named is TcMetRS (Trypanosoma cruzi, UniProt Q4D6H2). The experiment in a line: TcMetRS BIOMOL Green biochemical assay, 10-point dose response. The conditions noted are these: 50 μM methionine, 100 μM ATP, 80 nM TcMetRS.

pIC50: −log10 of the molar value. Like-named read-outs stand apart in the source and are kept apart here.

What is called pIC50 is the negative decadic logarithm of the IC50, by convention in mol/L.

Chain of TcMetRS (Q4D6H2 entry or part of it): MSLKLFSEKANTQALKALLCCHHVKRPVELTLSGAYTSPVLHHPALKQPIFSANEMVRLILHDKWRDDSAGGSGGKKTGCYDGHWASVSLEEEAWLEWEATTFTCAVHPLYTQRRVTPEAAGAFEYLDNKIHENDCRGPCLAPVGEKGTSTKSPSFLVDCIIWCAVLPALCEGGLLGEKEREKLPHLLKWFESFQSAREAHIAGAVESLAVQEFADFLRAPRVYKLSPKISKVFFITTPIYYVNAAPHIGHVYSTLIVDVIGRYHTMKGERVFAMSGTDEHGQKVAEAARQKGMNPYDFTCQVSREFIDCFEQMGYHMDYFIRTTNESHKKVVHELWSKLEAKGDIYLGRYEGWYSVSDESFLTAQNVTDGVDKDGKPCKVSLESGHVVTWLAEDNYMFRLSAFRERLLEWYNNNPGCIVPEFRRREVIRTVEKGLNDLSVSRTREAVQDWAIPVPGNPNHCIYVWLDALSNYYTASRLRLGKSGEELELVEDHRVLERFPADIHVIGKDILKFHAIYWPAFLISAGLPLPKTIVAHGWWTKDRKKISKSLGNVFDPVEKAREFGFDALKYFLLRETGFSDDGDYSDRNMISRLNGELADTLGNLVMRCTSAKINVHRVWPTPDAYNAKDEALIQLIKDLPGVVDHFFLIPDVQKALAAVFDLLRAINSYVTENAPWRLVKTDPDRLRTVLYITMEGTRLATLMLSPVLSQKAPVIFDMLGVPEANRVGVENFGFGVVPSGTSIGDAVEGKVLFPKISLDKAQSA
Chain of LdMetRS (A0A3Q8IBX2 entry or part of it): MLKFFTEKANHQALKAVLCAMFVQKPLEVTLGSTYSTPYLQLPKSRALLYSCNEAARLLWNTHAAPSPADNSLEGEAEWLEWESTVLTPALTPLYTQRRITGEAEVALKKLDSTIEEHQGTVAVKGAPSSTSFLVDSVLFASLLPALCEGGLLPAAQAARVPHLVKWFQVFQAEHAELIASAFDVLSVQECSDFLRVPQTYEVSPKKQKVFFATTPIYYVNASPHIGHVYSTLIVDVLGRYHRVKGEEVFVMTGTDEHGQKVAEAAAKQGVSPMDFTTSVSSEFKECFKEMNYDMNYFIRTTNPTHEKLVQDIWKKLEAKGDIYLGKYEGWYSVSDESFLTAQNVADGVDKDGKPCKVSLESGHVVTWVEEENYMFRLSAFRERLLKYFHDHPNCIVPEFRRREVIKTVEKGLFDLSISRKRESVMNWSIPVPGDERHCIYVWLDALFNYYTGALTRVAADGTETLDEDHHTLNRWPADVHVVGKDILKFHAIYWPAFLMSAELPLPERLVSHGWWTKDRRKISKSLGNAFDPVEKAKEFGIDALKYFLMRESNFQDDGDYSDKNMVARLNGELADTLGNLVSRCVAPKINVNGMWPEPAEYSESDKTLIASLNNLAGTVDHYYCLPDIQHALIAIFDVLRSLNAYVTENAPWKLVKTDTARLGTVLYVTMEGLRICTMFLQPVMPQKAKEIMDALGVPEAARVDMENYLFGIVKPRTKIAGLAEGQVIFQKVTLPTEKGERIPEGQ

Turning to `O=c1nc(NCCCNCc2cc3c(Cl)cc(Cl)cc3[nH]2)[nH]c2ccccc12` [DDD806905, reference compound], the in vivo efficacy result in assay [1] is “failed to show in vivo efficacy”. The “LdMetRS pIC50” value in assay [2] was 7.0. The IC50 in assay [3] (read-out: TcMetRS pIC50 (converted)) was 39.8 nM. Further, the pIC50 in assay [3] (tight binding limit likely reached, read-out: TcMetRS IC50) is 7.42.
